Experimental data: PubChem BioAssay AID1963830 (Molecular Pharmacology Branch, DTP, NCI, 2024)

Tested on: 922993-354-T-J3-PDC complex spheroid viability
Assay: Anticancer human tumor 922993-354-T-J3-PDC patient-derived endometrial carcinoma cell line growth inhibition [POLQ]
Settings: for IC50: curve of first compound; for viability, T/C: stronger effect = lower value
How it was run: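 Patient-derived tumour cells were co-cultured with HUVEC and mesenchymal stem cells as multicellular spheroids at 37 °C. They were treated with POLQ inhibitors (novobiocin, ART-558, RP6685) alone or combined with other agents. Top concentrations were at or near clinical Cmax (otherwise 10 microM; SN-38 at 1 microM), decreasing in half-log steps.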

[1] = second compound 0.0316 µM, first compound 0.0316 µM
[2] = second compound 0.0316 µM, first compound 0.1 µM
[3] = second compound 0.0316 µM, first compound 0.316 µM
[4] = second compound 0.0316 µM, first compound 1 µM
[5] = second compound 0.0316 µM, first compound 3.16 µM
[6] = second compound 0.0316 µM, first compound 10 µM
[7] = second compound 0.1 µM, first compound 0.0316 µM
[8] = second compound 0.1 µM, first compound 0.1 µM
[9] = second compound 0.1 µM, first compound 0.316 µM
[10] = second compound 0.1 µM, first compound 1 µM
[11] = second compound 0.1 µM, first compound 3.16 µM
[12] = second compound 0.1 µM, first compound 10 µM
[13] = second compound 0.316 µM, first compound 0.0316 µM
[14] = second compound 0.316 µM, first compound 0.1 µM
[15] = second compound 0.316 µM, first compound 0.316 µM
[16] = second compound 0.316 µM, first compound 1 µM
[17] = second compound 0.316 µM, first compound 3.16 µM
[18] = second compound 0.316 µM, first compound 10 µM
[19] = second compound 1 µM, first compound 0.0316 µM
[20] = second compound 1 µM, first compound 0.1 µM
[21] = second compound 1 µM, first compound 0.316 µM
[22] = second compound 1 µM, first compound 1 µM
[23] = second compound 1 µM, first compound 3.16 µM
[24] = second compound 1 µM, first compound 10 µM
[25] = second compound 3.16 µM, first compound 0.0316 µM
[26] = second compound 3.16 µM, first compound 0.1 µM
[27] = second compound 3.16 µM, first compound 0.316 µM
[28] = second compound 3.16 µM, first compound 1 µM
[29] = second compound 3.16 µM, first compound 3.16 µM
[30] = second compound 3.16 µM, first compound 10 µM
[31] = second compound 10 µM, first compound 0.0316 µM
[32] = second compound 10 µM, first compound 0.1 µM
[33] = second compound 10 µM, first compound 0.316 µM
[34] = second compound 10 µM, first compound 1 µM
[35] = second compound 10 µM, first compound 3.16 µM
[36] = second compound 10 µM, first compound 10 µM
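Note: spheroids exposed to the agents for one week.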
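Throughout, for viability, T/C: 100% = DMSO vehicle control wells.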

CC1COCCN1c1cc(C2(S(C)(=N)=O)CC2)nc(-c2ccnc3[nH]ccc23)n1 (centres undefined) + Cc1cccc(N(C)C(=O)C2C(O)CCN2c2nc(C)cc(C(F)(F)F)c2C#N)c1
IC50 (second compound 0.0316 µM): > 10000 nM | IC50 (second compound 0.1 µM): > 10000 nM | IC50 (second compound 0.316 µM): > 10000 nM | IC50 (second compound 1 µM): > 10000 nM | IC50 (second compound 3.16 µM): 8080 nM | IC50 (second compound 10 µM): 4880 nM | viability, T/C [1]: 99.8% | viability, T/C [2]: 95.3% | viability, T/C [3]: 95% | viability, T/C [4]: 105% | viability, T/C [5]: 93.3% | viability, T/C [6]: 53% | viability, T/C [7]: 112% | viability, T/C [8]: 95.4% | viability, T/C [9]: 97.1% | viability, T/C [10]: 99.7% | viability, T/C [11]: 82.6% | viability, T/C [12]: 62.9% | viability, T/C [13]: 102% | viability, T/C [14]: 100% | viability, T/C [15]: 104% | viability, T/C [16]: 101% | viability, T/C [17]: 77.5% | viability, T/C [18]: 56.8% | viability, T/C [19]: 96.5% | viability, T/C [20]: 105% | viability, T/C [21]: 99.3% | viability, T/C [22]: 88.9% | viability, T/C [23]: 86.9% | viability, T/C [24]: 56% | viability, T/C [25]: 101% | viability, T/C [26]: 96.8% | viability, T/C [27]: 103% | viability, T/C [28]: 93.1% | viability, T/C [29]: 85.7% | viability, T/C [30]: 42.1% | viability, T/C [31]: 98.5% | viability, T/C [32]: 94% | viability, T/C [33]: 96.8% | viability, T/C [34]: 91.5% | viability, T/C [35]: 71.4% | viability, T/C [36]: 14.7%

CC1COCCN1c1cc(C2(O)CC3CCC(C2)O3)c2cnn(-c3ccn[nH]3)c2n1 (centres undefined) + Nc1ccc(C#CCN(C(=O)Cc2ncc(C(F)(F)F)cc2C(F)(F)F)c2ccc(F)cc2)nn1
IC50 (second compound 0.0316 µM): 2080 nM | IC50 (second compound 0.1 µM): 2160 nM | IC50 (second compound 0.316 µM): 2270 nM | IC50 (second compound 1 µM): 2370 nM | IC50 (second compound 3.16 µM): 1310 nM | IC50 (second compound 10 µM): 453 nM | viability, T/C [1]: 102% | viability, T/C [2]: 105% | viability, T/C [3]: 89.1% | viability, T/C [4]: 74.9% | viability, T/C [5]: 35.3% | viability, T/C [6]: 21.3% | viability, T/C [7]: 108% | viability, T/C [8]: 107% | viability, T/C [9]: 98.7% | viability, T/C [10]: 76.7% | viability, T/C [11]: 36.8% | viability, T/C [12]: 16.2% | viability, T/C [13]: 106% | viability, T/C [14]: 102% | viability, T/C [15]: 92.9% | viability, T/C [16]: 75.8% | viability, T/C [17]: 38.9% | viability, T/C [18]: 20.7% | viability, T/C [19]: 105% | viability, T/C [20]: 94.3% | viability, T/C [21]: 89.2% | viability, T/C [22]: 74.7% | viability, T/C [23]: 40.9% | viability, T/C [24]: 14.9% | viability, T/C [25]: 97.8% | viability, T/C [26]: 101% | viability, T/C [27]: 80.4% | viability, T/C [28]: 59.3% | viability, T/C [29]: 26% | viability, T/C [30]: 12.2% | viability, T/C [31]: 99.4% | viability, T/C [32]: 90.9% | viability, T/C [33]: 62.4% | viability, T/C [34]: 22.9% | viability, T/C [35]: 19.4% | viability, T/C [36]: 10.9%
